Read-outs that look alike come from different tables or passages of the source. Marks after values point to notes of the source that are not given here.
Experiments:
[1] = target: T1, Mt-trHbN(II) (Mycobacterium tuberculosis, UniProt P9WN25); assay: O2 binding to Mt-trHbN(II) in the absence and presence of isoniazid (tonometer method)
T1 construct: made in house
Description: The value of B was determined by the tonometer method adding small volumes of air to the Mt-trHbN(II) solution (1.3×10^−6 M), in the absence and presence of isoniazid ( = 1.0×10^−2 M; B ^obs).

[2] = target: Sperm whale Mb(II); design: method as in ref 58 = [58]; 58 Antonini E, Brunori M (1971) Hemoglobin and myoglobin in their reactions with ligands. Amsterdam, London: North Holland Publishing Co.; settings: read-out: B for O2 binding to sperm whale Mb(II); pH 7.0, 20.0°C; cited from earlier work
[3] = target: T2, Mt-trHbN(III) (Mycobacterium tuberculosis, UniProt P9WN25); assay: biochemical; type: binding
T2 construct: made in house

[4] = target: T2, Mt-trHbN(III); assay: biochemical; type: binding; remark: listed apart in the source
[5] = target: T2, Mt-trHbN(III); assay: Peroxynitrite isomerization by Mt-trHbN(III) in the absence and presence of isoniazid; type: biochemical
Description: Rapid-mixing experiments were performed using either the SX18.MV stopped-flow apparatus (Applied Photophysics, Salisbury, United Kingdom) or the SFM-20 stopped-flow apparatus (Bio-Logic SAS, Claix, France); the dead time was 1.0 ms.
(§1) Kinetics of peroxynitrite isomerization by Mt-trHbN(III) in the absence and presence of isoniazid was recorded spectrophotometrically at 302 nm (ε302 nm = 1.705×10^3 M^−1 cm^−1) [60]–[67] in the absence and presence of Mt-trHbN(III) (final concentration 2.5×10^−6 – 1.0×10^−5 M) and isoniazid (final concentration 3.0×10^−5 – 4.0×10^−4 M) by rapid mixing the Mt-trHbN(III) or buffer solution with the peroxynitrite solution (final concentration 2.5×10^−4 M).
Kinetics of peroxynitrite isomerization by Mt-trHbN(III) in the absence and presence of isoniazid was analyzed in the framework of the minimum reaction mechanism depicted by Scheme D [60]–[67]: [drawing 11] (D)
Values of the pseudo-first-order rate constant for Mt-trHbN(III)-mediated peroxynitrite isomerization (i.e., l ^obs) were determined in the absence and presence of isoniazid according to Equation 8 [60]–[67]: [drawing 12] (8)
Values of the second-order rate constant for Mt-trHbN(III)-mediated peroxynitrite isomerization (i.e., l on) and of the first-order rate constant for peroxynitrite isomerization in the absence of Mt-trHbN(III) (i.e., l 0) were determined from the linear dependence of l ^obs values on the Mt-trHbN(III) concentration according to Equation 9 [60]–[67]: [drawing 13] (9)
The value of K for isoniazid binding to Mt-trHbN(III) was determined from the dependence of l on the drug concentration (i.e., 3.0×10^−5 M ≤ [isoniazid] ≤4.0×10^−4 M) according to Equation 11 [60]–[67]: [drawing 15] (11) where l on ^app is the value of l on in the presence of isoniazid.

[6] = Peroxynitrite isomerization in the absence of Mt-trHbN(III); settings: pH 7.0, 20.0°C
Description: as §1
Values of l 0 for peroxynitrite isomerization in the absence of Mt-trHbN(III) were also determined in the absence and presence of isoniazid from the analysis of the time-dependent absorbance decrease at 302 nm according to Equation 10 [60]–[67]: [drawing 14] (10)

[7] = target: T2, Mt-trHbN(III); type: biochemical
[8] = target: T1, Mt-trHbN(II); assay: Isoniazid binding to Mt-trHbN(II), stopped-flow, anaerobic
[9] = target: T1, Mt-trHbN(II); type: binding
[10] = target: KatG(III); design: method as in PMID 17309235; settings: pH 7.2, 25.0°C, cited from earlier work
[11] = test system: plasma protein; design: method as in ref 89 = [89]; 89 Medical Economics (2004) Drug Information for the Health Care Professional, Thomson PDR, Montvale, p. 1689.; settings: cited from earlier work
[12] = test system: Sperm whale Mb(III); settings: pH 7.5, 20.0°C; cited from earlier work
[13] = isoniazid 1.0×10^−4 M, pH 7.0, 20.0°C
[14] = isoniazid 1.2×10^−4 M, pH 7.0, 20.0°C
[15] = isoniazid 2.0×10^−4 M, pH 7.0, 20.0°C
[16] = isoniazid 2.4×10^−4 M, pH 7.0, 20.0°C
[17] = isoniazid 3.0×10^−5 M, pH 7.0, 20.0°C
[18] = isoniazid 5.0×10^−5 M, pH 7.0, 20.0°C
[19] = isoniazid 6.0×10^−5 M, pH 7.0, 20.0°C
[20] = Mt-trHbN(III) 5.0×10^−5 M, isoniazid 1.0×10^−2 M, pH 7.0, 20.0°C
[21] = absence of Mt-trHbN(III), isoniazid and azide
[22] = no Mt-trHbN(III), isoniazid 1.0×10^−2 M, pH 7.0, 20.0°C

## O=O [O2]
[1]; [isoniazid] = 1.0×10^−2 M, from B and D, read-out: B obs calculated according to Equation 16
  Kd: 0.41 µM
[1]; [isoniazid] = 1.0×10^−2 M, corresponds to B obs
  P 50 for O2 binding to Mt-trHbN(II) in the presence of isoniazid: (2.3±0.3)×10^−1 mm Hg
[1]; absence of isoniazid, corresponds to B
  P 50 for O2 binding to Mt-trHbN(II): (2.4±0.4)×10^−2 mm Hg
[1]; read-out: dissociation equilibrium constant B for O2 binding to Mt-trHbN(II), absence of isoniazid, pH 7.0, 20.0°C, Equation 15
  Kd: 0.044 µM
[2]
  Kd: 0.52 µM

## NNC(=O)c1ccncc1 [isoniazid]
[3]; pH 7
  Hill coefficient n for isoniazid binding to Mt-trHbN(III): 1.01±0.02
[3]; pH 7.0, 20.0°C, Equation 3, read-out: first-order dissociation rate constant k off
  koff: 0.46 s⁻¹
[3]; pH 7.0, 20.0°C, Equation 3, read-out: second-order association rate constant k on
  kon: 5300 M⁻¹ s⁻¹
[3]; pH 7.0, 20.0°C, obtained at equilibrium, Equation 1, read-out: dissociation equilibrium constant K for isoniazid binding to Mt-trHbN(III)
  Kd: 110 µM
[3]; pH 7.0, 20.0°C, read-out: K calculated from kinetic parameters (k off/k on)
  Kd: 87 µM
[4]; 1.0×10^−3 M ≤ [isoniazid] ≤4.0×10^−3 M
  mode of inhibition of azide binding to Mt-trHbN(III): inhibits competitively
[4]; Equation 7, H obs/H ratio versus [isoniazid] 1.0×10^−3 to 4.0×10^−3 M, pH 7.0, 20.0°C
  Kd: 95 µM
[5]; Equation 11, dependence of l on [isoniazid] 3.0×10^−5 to 4.0×10^−4 M, pH 7.0, 20.0°C, read-out: K for isoniazid binding to Mt-trHbN(III) from inhibition of peroxynitrite isomerization
  Kd: 130 µM
[5]; [isoniazid] >10×K
  Mt-trHbN(III) catalysis of peroxynitrite isomerization: does not catalyze the isomerization of peroxynitrite
[5]; absence and presence of isoniazid, pH 7.0, 20.0°C
  average l 0 value (l 0 unaffected by isoniazid): 0.28 s⁻¹
[5]; from dependence of l on isoniazid concentration
  Hill coefficient n for isoniazid binding to Mt-trHbN(III): 1.00±0.02
[5]; [13]
  l 0 for Mt-trHbN(III)-catalyzed peroxynitrite isomerization (y intercept): (3.1±0.3)×10^−1 s^−1
  l on app, second-order rate constant for Mt-trHbN(III)-mediated peroxynitrite isomerization: (3.3±0.3)×10^4 M^−1 s^−1
[5]; [14]
  l 0 for Mt-trHbN(III)-catalyzed peroxynitrite isomerization (y intercept): (2.6±0.3)×10^−1 s^−1
  l on app, second-order rate constant for Mt-trHbN(III)-mediated peroxynitrite isomerization: (3.2±0.3)×10^4 M^−1 s^−1
[5]; [15]
  l 0 for Mt-trHbN(III)-catalyzed peroxynitrite isomerization (y intercept): (2.5±0.3)×10^−1 s^−1
  l on app, second-order rate constant for Mt-trHbN(III)-mediated peroxynitrite isomerization: (2.7±0.3)×10^4 M^−1 s^−1
[5]; [16]
  l 0 for Mt-trHbN(III)-catalyzed peroxynitrite isomerization (y intercept): (3.0±0.3)×10^−1 s^−1
  l on app, second-order rate constant for Mt-trHbN(III)-mediated peroxynitrite isomerization: (2.4±0.3)×10^4 M^−1 s^−1
[5]; [17]
  l 0 for Mt-trHbN(III)-catalyzed peroxynitrite isomerization (y intercept): (2.9±0.3)×10^−1 s^−1
  l on app, second-order rate constant for Mt-trHbN(III)-mediated peroxynitrite isomerization: (5.1±0.5)×10^4 M^−1 s^−1
[5]; isoniazid 4.0×10^−4 M, pH 7.0, 20.0°C
  l 0 for Mt-trHbN(III)-catalyzed peroxynitrite isomerization (y intercept): (2.5±0.3)×10^−1 s^−1
[5]; [18]
  l 0 for Mt-trHbN(III)-catalyzed peroxynitrite isomerization (y intercept): (2.8±0.3)×10^−1 s^−1
  l on app, second-order rate constant for Mt-trHbN(III)-mediated peroxynitrite isomerization: (4.4±0.4)×10^4 M^−1 s^−1
[5]; [19]
  l 0 for Mt-trHbN(III)-catalyzed peroxynitrite isomerization (y intercept): (3.0±0.3)×10^−1 s^−1
  l on app, second-order rate constant for Mt-trHbN(III)-mediated peroxynitrite isomerization: (4.1±0.4)×10^4 M^−1 s^−1
[6]; isoniazid 1.0×10^−4 M
  l 0 for peroxynitrite isomerization in the absence of Mt-trHbN(III): (3.2±0.3)×10 ^−1 s^−1
[6]; isoniazid 1.2×10^−4 M
  l 0 for peroxynitrite isomerization in the absence of Mt-trHbN(III): (2.4±0.3)×10 ^−1 s^−1
[6]; isoniazid 2.0×10^−4 M
  l 0 for peroxynitrite isomerization in the absence of Mt-trHbN(III): (2.6±0.3) ×10 ^−1 s^−1
[6]; isoniazid 2.4×10^−4 M
  l 0 for peroxynitrite isomerization in the absence of Mt-trHbN(III): (2.9±0.3)×10 ^−1 s^−1
[6]; isoniazid 3.0×10^−5 M
  l 0 for peroxynitrite isomerization in the absence of Mt-trHbN(III): (2.7±0.3)×10 ^−1 s^−1
[6]; isoniazid 4.0×10^−4 M
  l 0 for peroxynitrite isomerization in the absence of Mt-trHbN(III): (2.6±0.3)×10 ^−1 s^−1
[6]; isoniazid 5.0×10^−5 M
  l 0 for peroxynitrite isomerization in the absence of Mt-trHbN(III): (3.0 ±0.3)×10 ^−1 s^−1
[6]; isoniazid 6.0×10^−5 M
  l 0 for peroxynitrite isomerization in the absence of Mt-trHbN(III): (2.6±0.3)×10 ^−1 s^−1
[7]
  average yield of NO2 –: 26%
  average yield of NO3 –: 74%
[7]; [20]
  NO2 –: 25±4%
  NO3 –: 74±8%
  NO3 – + NO2 –: 99%
[7]; pH 7
  NO2 –: 26±4%
  NO3 –: 75±8%
  NO3 – + NO2 –: 101%
[21]
  average yield of NO2 –: 29%
  average yield of NO3 –: 72%
[22]
  NO2 –: 31±4%
  NO3 –: 71±6%
  NO3 – + NO2 –: 102%
pH 7
  NO2 –: 28±4%
  NO3 –: 72±5%
  NO3 – + NO2 –: 100%
[8]; Mt-trHbN(II) versus Mt-trHbN(III)
  lower affinity for the ferrous form than for the ferric form: 10 fold
[8]; average of the D values here determined
  Kd: 1200 µM
[8]; pH 7.0, 20.0°C
  Hill coefficient n for isoniazid binding to Mt-trHbN(II): 1.01±0.01
[8]; pH 7.0, 20.0°C, Equation 14, read-out: first-order dissociation rate constant d off
  koff: 1.5 s⁻¹
[8]; pH 7.0, 20.0°C, Equation 14, read-out: second-order association rate constant d on
  kon: 1300 M⁻¹ s⁻¹
[1]; [isoniazid] = 1.0×10^−2 M
  mode of inhibition of O2 binding to Mt-trHbN(II): inhibits competitively
[9]; 5.0×10^−3 M isoniazid
  effect of isoniazid on CO binding to Mt-trHbN(II): grossly impairs CO binding
[9]; [isoniazid] ≥1.0×10^−2 M, data not shown
  phases of CO binding to Mt-trHbN(II): only the slow phase is observed
[10]; obtained at equilibrium, read-out: K for isoniazid binding to KatG(III)
  Kd: ~1 µM
[10]
  k off for isoniazid binding to KatG(III): k off = 2.0×10^−2 s^−1
  k on for isoniazid binding to KatG(III): k on = 4.8×10^2 M^−1 s^−1
[10]; read-out: K calculated from kinetic parameters (k off/k on) for KatG(III)
  Kd: 42 µM
[11]
  plasma protein binding: very poor

## O=NOO [peroxynitrite]
[12]
  l on for peroxynitrite detoxification by sperm whale Mb(III): l on = 1.6×10^4 M^−1 s^−1 ^e

Reference: publication PMC3731299, “Isoniazid Inhibits the Heme-Based Reactivity of Mycobacterium tuberculosis Truncated Hemoglobin N” (PLoS ONE, 2013)
